Results as given in patent US4843070A, “Substituted thiazetoquinoline-3-carboxylic acids and pharmaceutically acceptable salts thereof” (priority 1986, dated 1989).
Values after ≈ are worked out from the molar mass of the structure shown. Where two headings read alike, the source gives them in different places.

Assays:
S. aureus 209-P JC = assay: MIC by agar plate dilution method, S. aureus 209-P JC; assay type: cell-based; details: Staphylococcus aureus; Test 2; S. aureus 209-P JC; inoculum 10^6; 37° C., 18 hours; read-out: minimum inhibitory concentration (MIC)
Experimental: (§1) Test method: The MIC was measured by an agar plate dilution method in accordance with a standard method of Japan Chemotherapeutic Society (cf. Nippon Kagaku Ryoho Gakkaishi, 29(1), 76-79, 1981). Thus, the organisms incubated at 37° C. for 18 hours using sensitivity test broth (Nissei) was diluted to 10^6 CFU/ml using the same broth. […] As a control, enoxacin and ofloxacin were used in Tests 1 and 2, respectively.
(§2) The numbers of the inoculated bacteria were 10^6 in all cases and the unit of the MIC was micrograms/ml.

E. coli NIHJ JC-2 = assay: MIC by agar plate dilution method, E. coli NIHJ JC-2; assay type: cell-based; details: Escherichia coli, read-out: minimum inhibitory concentration (MIC)
Experimental: as §1, §2

P. aeruginosa E-2 = assay: MIC by agar plate dilution method, P. aeruginosa E-2; assay type: cell-based; details: Pseudomonas aeruginosa, E2; Test 2; P. aeruginosa E-2; inoculum 10^6; 37° C., 18 hours; read-out: minimum inhibitory concentration (MIC)
Experimental: as §1, §2

Proteus mirabilis 181 = assay: MIC by agar plate dilution method, Proteus mirabilis 181; assay type: cell-based; details: read-out: minimum inhibitory concentration (MIC)
Experimental: as §1, §2

S. flexneri = assay: MIC by agar plate dilution method, S. flexneri; assay type: cell-based; details: Shigella flexneri, Test 2, inoculum 10^6, 37° C., 18 hours, read-out: minimum inhibitory concentration (MIC)
Experimental: as §1, §2

K. pneumoniae K-1966 = assay: MIC by agar plate dilution method, K. pneumoniae K-1966; assay type: cell-based; details: Klebsiella pneumoniae, read-out: minimum inhibitory concentration (MIC)
Experimental: as §1, §2

S. marcescens IFO 3736 = assay: MIC by agar plate dilution method, S. marcescens IFO 3736; assay type: cell-based; details: Serratia marcescens, IFO3736; Test 2; S. Marcescens IFO 3736; inoculum 10^6; 37° C., 18 hours; read-out: minimum inhibitory concentration (MIC)
Experimental: as §1, §2

B. subtilis ATCC 6633 = assay: MIC by agar plate dilution method, B. subtilis ATCC 6633; assay type: cell-based; details: Bacillus subtilis, ATCC6633; Test 2; B. subtilis ATCC 6633; inoculum 10^6; 37° C., 18 hours; read-out: minimum inhibitory concentration (MIC)
Experimental: as §1, §2

S. epidermidis = assay: MIC by agar plate dilution method, S. epidermidis; assay type: cell-based; details: Staphylococcus epidermidis, Test 2, inoculum 10^6, 37° C., 18 hours, read-out: minimum inhibitory concentration (MIC)
Experimental: as §1, §2

M. luteus ATCC 9341 = assay: MIC by agar plate dilution method, M. luteus ATCC 9341; assay type: cell-based; details: Micrococcus luteus, ATCC9341; Test 2; M. luteus ATTC 9341; inoculum 10^6; 37° C., 18 hours; read-out: minimum inhibitory concentration (MIC)
Experimental: as §1, §2

[1] = tested on: infections caused by Gram positive bacteria and Pseudomonas aeruginosa (chronic); details: background statement; cited from earlier work
[2] = NIHJJC2, Test 2, E. coli NIHJ JC-2, inoculum 10^6, 37° C., 18 hours
[3] = Test 2, Proteus mirabilis 181, inoculum 10^6, 37° C., 18 hours
[4] = K1966, Test 2, K. pneumoniae K-1966, inoculum 10^6, 37° C., 18 hours

SMILES: O=C(O)c1c2n(c3cc(N4CCNCC4)c(F)cc3c1=O)C(c1ccc(F)cc1)S2 (stereo not drawn) [Table 1 (12), 6-Fluoro-1-(4-fluorophenyl)-4-oxo-7-(1-piperazinyl)-4H-(1,3)thiazeto(3,2-a)quinoline-3-carboxylic acid]
- MIC (S. aureus 209-P JC): 0.2 µg/mL (≈ 0.466 µM)
- MIC (E. coli NIHJ JC-2; [2]): 0.025 µg/mL (≈ 0.0582 µM)
- MIC (P. aeruginosa E-2): 0.39 µg/mL (≈ 0.908 µM)
- MIC (Proteus mirabilis 181; [3]): 0.2 µg/mL (≈ 0.466 µM)
- MIC (S. flexneri): 0.025 µg/mL (≈ 0.0582 µM)
- MIC (K. pneumoniae K-1966; [4]): 0.0125 µg/mL (≈ 0.0291 µM)
- MIC (S. marcescens IFO 3736): 0.39 µg/mL (≈ 0.908 µM)
- MIC (B. subtilis ATCC 6633): 0.05 µg/mL (≈ 0.116 µM)
- MIC (S. epidermidis): 0.39 µg/mL (≈ 0.908 µM)
- MIC (M. luteus ATCC 9341): 1.56 µg/mL (≈ 3.63 µM)

SMILES: CC1Sc2c(C(=O)O)c(=O)c3cc(F)c(N4CCNCC4)cc3n21 (stereo not drawn) [Table 1 (13), 6-Fluoro-1-methyl-4-oxo-7-(1-piperazinyl)-4H-(1,3)thiazeto(3,2-a)quinoline-3-carboxylic acid]
- MIC (S. aureus 209-P JC): 0.1 µg/mL (≈ 0.286 µM)
- MIC (E. coli NIHJ JC-2; NIHJJC2, 18 h): 0.0125 µg/mL (≈ 0.0358 µM)
- MIC (P. aeruginosa E-2): 0.2 µg/mL (≈ 0.572 µM)
- MIC (Proteus mirabilis 181; [3]): 0.025 µg/mL (≈ 0.0716 µM)
- MIC (S. flexneri): 0.0125 µg/mL (≈ 0.0358 µM)
- MIC (K. pneumoniae K-1966; K1966, 18 h): 0.0125 µg/mL (≈ 0.0358 µM)
- MIC (S. marcescens IFO 3736): 0.05 µg/mL (≈ 0.143 µM)
- MIC (B. subtilis ATCC 6633): 0.1 µg/mL (≈ 0.286 µM)
- MIC (S. epidermidis): 3.13 µg/mL (≈ 8.96 µM)
- MIC (M. luteus ATCC 9341): 1.56 µg/mL (≈ 4.46 µM)

SMILES: COc1c(N2CCN(C)CC2)c(F)cc2c(=O)c(C(=O)O)c3n(c12)C(C)S3 (stereo not drawn) [Table 1 (14), 6-Fluoro-8-methoxy-1-methyl-7-(4-methyl-1-piperazinyl)-4-oxo-4H-(1,3)thiazeto(3,2-a)quinoline-3-carboxylic acid]
- MIC (S. aureus 209-P JC): 0.1 µg/mL (≈ 0.254 µM)
- MIC (E. coli NIHJ JC-2; [2]): 0.05 µg/mL (≈ 0.127 µM)
- MIC (P. aeruginosa E-2): 0.39 µg/mL (≈ 0.991 µM)
- MIC (Proteus mirabilis 181; Proteus mirabilis, 181, 18 h): 0.0125 µg/mL (≈ 0.0318 µM)
- MIC (S. flexneri): 0.0125 µg/mL (≈ 0.0318 µM)
- MIC (K. pneumoniae K-1966; [4]): 0.025 µg/mL (≈ 0.0635 µM)
- MIC (S. marcescens IFO 3736): 0.2 µg/mL (≈ 0.508 µM)
- MIC (B. subtilis ATCC 6633): 0.025 µg/mL (≈ 0.0635 µM)
- MIC (S. epidermidis): 0.39 µg/mL (≈ 0.991 µM)
- MIC (M. luteus ATCC 9341): 0.2 µg/mL (≈ 0.508 µM)

SMILES: CCn1cc(C(=O)O)c(=O)c2ccc(C)nc21 [nalidixic acid]
- activity against infections caused by Gram positive bacteria and Pseudomonas aeruginosa (chronic) [1]: not active

SMILES: CCn1cc(C(=O)O)c(=O)c2cnc(N3CCNCC3)nc21 [pipemidic acid]
- activity against infections caused by Gram positive bacteria and Pseudomonas aeruginosa (chronic) [1]: not active

SMILES: CCn1cc(C(=O)O)c(=O)c2cnc(N3CCCC3)nc21 [piromidic acid]
- activity against infections caused by Gram positive bacteria and Pseudomonas aeruginosa (chronic) [1]: not active
